# Assay results taken from PubChem BioAssay AID2305 (GlaxoSmithKline (GSK), 2010).
# Test system: P. falciparum 3D7 growth, pLDH absorbance
# Assay: blood-stage malaria parasite growth potency – strain 3D7, dose response (AID 2305)
compound,measurement,value
CCCNC[C@@H](O)[C@H](Cc1ccccc1)NC(=O)c1cc(NCC)cc(N2CCCC2=O)c1,IC50,760 nM
OC(CNc1ccnc(Nc2cccc(Cl)c2)n1)c1cccc(F)c1 (stereo unspecified),IC50,970 nM
Cc1cccc(C)c1C1CCN(CCCCNC(=O)c2cc3ccccc3[nH]2)CC1,IC50,890 nM
OC(CNC12CC3CC(CC(C3)C1)C2)c1cccc(C(F)(F)F)c1 (stereo unspecified),IC50,300 nM
O=C(C=Cc1ccc(Cl)c(Cl)c1)NCCCCCN1CCC(CCCNC(=O)c2ccc3c(c2)OCO3)CC1,IC50,150 nM
COc1ccc(N2CCc3c(-c4cccc5cnccc45)cc(C)nc32)c(C)c1,IC50,660 nM
COc1ccc2nccc([C@@H](O)CN3CCC(NCc4[nH]c5ccccc5c4F)CC3)c2c1,IC50,250 nM
COc1ccccc1CCNc1nc(C)cc(N[C@@H](CC(C)C)C(=O)NCc2cccs2)n1,IC50,790 nM
COc1ccccc1C1CCN(C2CCC(NC(=O)/C=C/c3cccc(Cl)c3F)CC2)CC1 (stereo unspecified),IC50,1290 nM
O=S(=O)(c1ccc(OCc2ccc(Cl)cc2)cc1)c1cc2c(cc1OCc1ccccc1)CCN(CC1CC1)CC2,IC50,1110 nM
O=S(=O)(Nc1ccc(CCN2CCC(N3CCCCC3)CC2)cc1)c1cccc2cccnc12,IC50,1060 nM
Cc1ccc(NC(=O)Nc2ccc(Cn3ncc(N4CCCNCC4)c(Cl)c3=O)cc2)cc1,IC50,920 nM
COc1ccc(Cn2cncc2CN(CCC(C)C)C(=O)c2ccc(Cl)nc2Cl)cc1,IC50,1040 nM
CCc1ccccc1N=C1c2c(cccc2[N+](=O)[O-])C(=O)C1C(C)=O (stereo unspecified),IC50,90 nM
Nc1c2c(nc3ccc(NC(=O)CCCc4ccccc4)cc13)CCCC2,IC50,430 nM
CC(C)C(=O)n1ncc2c3c(N)nc(N)nc3ccc21,IC50,1030 nM
CN1CCN(c2cccc(NC(=O)c3ccc(-c4ccc(C#N)cc4)cc3)c2)CC1,IC50,1260 nM
Cc1ccccc1C1CCN(C2CCC(NC(=O)/C=C/c3ccc(F)cc3)CC2)CC1 (stereo unspecified),IC50,1340 nM
CCNc1cc(C(=O)N[C@@H](Cc2ccccc2)[C@H](O)CNCc2cc(OC)cc(OC)c2)cc(N2CCCC2=O)c1,IC50,740 nM
O=[N+]([O-])c1cccc(CNC2CCN(Cc3ccc(-c4ccccc4)cc3)CC2)c1,IC50,230 nM
COc1ccc2[nH]cc(C3=CCN(Cc4ccccc4)CC3)c2c1,IC50,570 nM
CC(C)(C)c1cc(C(=O)N2CCN(c3nccnc3C#N)CC2)n(Cc2ccccc2)n1,IC50,760 nM
Cc1ccc(Nc2ccnc3cc(-c4nccs4)ccc23)cc1C(O)c1ccccc1 (stereo unspecified),IC50,740 nM
Cc1cc(=O)c(-c2ccc(Oc3ccc(OC(F)(F)F)cc3)cc2)c(C)[nH]1,IC50,360 nM
CC(=O)Nc1ncc(C(=O)Nc2cccc(-c3ccc(-c4nc5c(C)cccc5[nH]4)cc3)c2)s1,IC50,640 nM
CCCC(=O)NC(c1cccs1)c1cc(Cl)c2cccnc2c1O (stereo unspecified),IC50,850 nM
CN1CCC(C(=O)N(Cc2ccc(-c3ccc(CNCCc4ccc(S(C)(=O)=O)cc4)cn3)cc2)Cc2ccc3c(c2)OCO3)CC1,IC50,1000 nM
COc1cc2nc(Nc3ccc(C)cc3)nc(Nc3ccc(C)cc3)c2cc1OC,IC50,140 nM
N#Cc1cccc(NC(=O)Nc2cccc(-c3cccc(-c4nc5ccccc5[nH]4)c3)c2)c1,IC50,90 nM
CC(=O)Nc1nc(C)c(-c2csc(Nc3ccc(Cl)cc3)n2)s1,IC50,260 nM
CC(CCCCC(=O)Nc1ccc(C(F)(F)F)cc1)NCC(O)c1cccc(Cl)c1 (stereo unspecified),IC50,280 nM
COc1ccc(C(=O)N2CCc3cc4nccc(N5CCN6CCC[C@H]6C5)c4cc32)cc1,IC50,950 nM
CCCCCCCCc1c(C)[nH]c(C)c(C#N)c1=O,IC50,400 nM
COCCOc1nc(N)nc2ncc(Cc3cc(OC)ccc3OC)c(C)c12,IC50,430 nM
CCN(CCCN1CCCC1)c1cc(C)nc(Nc2ccc(Cl)cc2)n1,IC50,340 nM
CCCCCC(C)C(C)c1cc(O)c2c(c1)OC(C)(C)CC2=Cc1ccncc1 (stereo unspecified),IC50,210 nM
CCCc1cc(=O)[nH]c(-n2nc(C)cc2NC(=O)CC(c2ccccc2)c2ccccc2)n1,IC50,620 nM
COc1ccc(Nc2nccc(N3CCC(NC(=O)Nc4ccc5c(c4)OCO5)C3)n2)cc1 (stereo unspecified),IC50,600 nM
O=C(/C=C/c1ccc(F)c(C(F)(F)F)c1)N1CCC(CN2CCC(c3c[nH]c4ccccc34)CC2)CC1,IC50,920 nM
CCCCCCCN(Cc1ccc(OC(C)(C)C(=O)OCC)cc1)C(=O)Nc1ccccc1OC(F)(F)F,IC50,970 nM
Cc1ccc2nc(Cl)c3cc(C(=O)NCCCN4CCCC4)sc3c2c1,IC50,1140 nM
CCCCCN=C(N)c1ccc(OCCCCCOc2ccc(C(N)=NCCCCC)cc2)cc1,IC50,250 nM
O=C(N1CCN(c2ccc(C(F)(F)F)cc2[N+](=O)[O-])CC1)C(Cl)(Cl)Cl,IC50,710 nM
O=C(NCCCCCN1CCC(c2c[nH]c3ccccc23)CC1)c1ccc(Cl)c(Cl)c1,IC50,1360 nM
CCCCOc1ccc(C(=O)C(CCC(CNC(C)(C)C)C(=O)c2ccc(OCCCC)cc2)CNC(C)(C)C)cc1 (stereo unspecified),IC50,1020 nM
COc1cccc(NC(=O)c2cc(Br)cc(N3CCN(c4ccncc4)CC3)c2)c1,IC50,770 nM
CC(C)(c1ccccc1)c1ccc(O)c(CN2CCOCC2)c1,IC50,980 nM
COc1ccc(-c2ccc(CNC3Cc4ccccc4C3)cc2)cc1S(=O)(=O)NCCN1CCCC1,IC50,800 nM
CCc1ccccc1NC(=O)CN1CCN(c2ncnc3scc(-c4ccc(F)cc4)c23)CC1,IC50,700 nM
O=C(Nc1ccc(-c2nc3ccc(NC(=O)c4ccc(Br)cc4)cc3[nH]2)cc1)c1ccc(Br)cc1,IC50,790 nM
CC1CN(c2ccc(NC(=O)c3ccsc3)cc2C(=O)N2CCN(Cc3ccc(C(C)(C)C)cc3)CC2)CC(C)O1 (stereo unspecified),IC50,870 nM
COCCNCc1nc(-c2ccc3c(Nc4ccc(Cl)cc4F)ccnc3c2)cs1,IC50,1080 nM
COC(=O)c1cc(NC(=O)Nc2ccc(Cn3ncc(N4CCCNCC4)c(Cl)c3=O)cc2)cc(C(=O)OC)c1,IC50,710 nM
CCCNCc1ccc(-c2ccc(CN(CCOC)C(=O)c3ccc([N+](=O)[O-])c(C)c3)cc2)nc1,IC50,870 nM
CCOC(=O)C1=C(C)NC2=C(C(=O)CC(C)(C)C2)C1c1ccc(Cl)cc1 (stereo unspecified),IC50,920 nM
COc1cccc(CN2CCC(CCOC(c3ccccc3)c3ccc(Cl)cc3)CC2)c1O (stereo unspecified),IC50,710 nM
Cc1cc(NN=Cc2cccc(F)c2)c2ccc(F)cc2n1,IC50,230 nM
CCOc1ccc(/C=C/C(=O)Nc2cccc3c2CCN(C)C3)cc1,IC50,1110 nM
CCCCc1ccc(-c2c(N)nc(N)nc2CC)cc1,IC50,950 nM
Cc1cccc2[nH]c(-c3ccc(-c4ccc(CNCc5cnn(-c6ccccc6)n5)cc4)cc3)nc12,IC50,430 nM
CCCCCc1ccc(N2C(N)=NC(N)=NC2(C)C)cc1,IC50,130 nM
CC(C)c1ccc(NC(=O)NC2CCN(CCCCCN(C)C(=O)/C=C/c3ccc(Cl)c(Cl)c3)C2)cc1 (stereo unspecified),IC50,830 nM
CN1CCC(C(=O)N(Cc2ccc(-c3ccc(CNCCc4ccc(S(C)(=O)=O)cc4)cn3)cc2)C2CCN(Cc3ccccc3)CC2)CC1,IC50,670 nM
COc1ccc2nccc([C@@H](O)CN3CCC(NC(=O)c4ccc(Oc5ccccc5)cc4)CC3)c2c1,IC50,1380 nM
CC1(C)N=C(N)N=C(N)N1OCc1ccc2ccccc2c1CON1C(N)=NC(N)=NC1(C)C,IC50,660 nM
CCCNCc1ccc(-c2ccc(CN(Cc3cccs3)C(=O)C3CCN(C)CC3)cc2)nc1,IC50,660 nM
Cc1ccccc1C1CCN(C2CCC(NC(=O)/C=C/c3cccc(Cl)c3F)CC2)CC1 (stereo unspecified),IC50,1140 nM
O=C(c1ccc([N+](=O)[O-])o1)N1CCN(c2nc3c(F)cc(F)cc3s2)CC1,IC50,970 nM
CCc1ccc(CN2CCC(CNC(=O)c3cc(-c4ccccc4F)cs3)C2)cc1 (stereo unspecified),IC50,900 nM
CN1CCN(CCCN(Cc2ccc(-c3ccc(CNCCc4ccccc4)cc3)cc2)C(=O)c2cccs2)CC1,IC50,1430 nM
N#Cc1ccc(N(CCOc2ccc(Cl)c(F)c2)Cc2ccccc2C(F)(F)F)cc1C(F)(F)F,IC50,680 nM
CCCCN(Cc1cc(Cl)c(OC)c(OC)c1)c1ccc(C(O)(C(F)(F)F)C(F)(F)F)cc1,IC50,190 nM
O=C1COc2ccccc2N1CCN1CCC(NCc2ccc(-c3cccs3)cc2)CC1,IC50,1430 nM
CCOCCCNc1sc(S(=O)(=O)c2ccccc2)nc1S(=O)(=O)c1ccc(C)cc1,IC50,810 nM
Fc1ccc2[nH]cc(CCNCc3ccc(-c4cccc(-c5nc6ccccc6[nH]5)c4)cc3)c2c1,IC50,170 nM
COc1cc(Nc2ncc3c(C)nc(-c4cc5ccccc5[nH]4)n3n2)cc(OC)c1OC,IC50,1020 nM
CC(Cc1ccc(OCCCCOc2ccccc2)cc1)NCCc1ccccc1Cl (stereo unspecified),IC50,180 nM
CC(Cc1ccc(NC(=O)c2ccc(CNCc3ccccc3)cc2)cc1)N(CCc1cccc(Cl)c1)C(=O)OC(C)(C)C (stereo unspecified),IC50,970 nM
Cc1ccc(C)c(-n2c(SCC(=O)Nc3ccc(C(N)=O)cc3)nnc2-c2cccc(Cl)c2)c1,IC50,840 nM
CC(=O)c1ccc2nc[nH]c(=O)c2c1,IC50,720 nM
O=C(C=Cc1ccc(Cl)c(Cl)c1)NCCCCCN1CCCC(CCCNC(=O)c2ccc3c(c2)OCO3)C1 (stereo unspecified),IC50,1220 nM
COc1cc(NC(=O)C(c2ccc(Cl)cc2)C(C)C)cc(OC)c1 (stereo unspecified),IC50,720 nM
CC(=O)Nc1cccc(C(=O)Nc2cccc(-c3ccc(-c4nc5ccc(F)cc5[nH]4)cc3)c2)c1,IC50,760 nM
Cc1cccc2[nH]c(-c3ccc(-c4ccc(CN5CCN(CCN6CCOCC6)CC5)cc4)s3)nc12,IC50,240 nM
O=C(/C=C/c1ccc(Cl)c(Cl)c1)NCCCCCCN1CCCN(C(=O)Nc2ccc(C(F)(F)F)cc2)CC1,IC50,580 nM
CC1CCCN(C(=O)C(C)Nc2cc(Cl)ccc2N2CCOCC2)C1 (stereo unspecified),IC50,320 nM
O=C(Cc1cccc(Cl)c1)Nc1cccc(-c2c[nH]c3nc(Nc4cccc(O)c4)ncc23)c1,IC50,730 nM
CC(CCc1ccc(OCc2ccccc2)cc1)NCC(O)c1ccccc1 (stereo unspecified),IC50,1100 nM
CCN(CCCN1CCCCC1)c1cc(C)nc(Nc2ccc(C)cc2Cl)n1,IC50,340 nM
O=C(/C=C/c1ccc(-c2ccccc2)cc1)NCCCCCN1CCC(c2c[nH]c3ccccc23)CC1,IC50,850 nM
Nc1nc(N)c2c(ccc3c2ccn3CC2CC2)n1,IC50,210 nM
O=C(NCC1CC1)C1CCN(C(c2ccccc2)c2nc3ccccc3s2)CC1 (stereo unspecified),IC50,1020 nM
Oc1cc2c(cc1CN1CCN(Cc3ccccc3)CC1)CCC2,IC50,720 nM
CC(=O)c1cc(N2CCCC2)ccc1N,IC50,20 nM
COc1ccccc1CCNc1nc(C)cc(N[C@@H](CC(C)C)C(=O)NCCc2ccccc2)n1,IC50,720 nM
Cc1nc(N=C(N)N)nc2cc3c(cc12)CCC3,IC50,920 nM
CCCNCc1ccc(-c2ccc(CNC3Cc4ccccc4C3)cc2)nc1,IC50,850 nM
Cc1cc(Nc2ccncc2)n2nc(C)c(-c3ccccc3Cl)c2n1,IC50,650 nM
CCNc1cc(C)nc(Nc2ccc(F)cc2)n1,IC50,800 nM
O=S(=O)(Nc1cccc(CCN2CCC(N3CCCCC3)CC2)c1)c1ccc(Cl)cc1,IC50,920 nM
O=c1nc(C=Cc2ccc(Br)cc2)oc2ccccc12,IC50,1050 nM
